Measurements reported in PubChem BioAssay AID1919002 (Molecular Pharmacology Branch, DTP, NCI, 2023).

Tested on: 743489-274-T-PDC complex spheroid growth
Test: Anticancer human tumor 743489-274-T-PDC patient-derived renal cell carcinoma cell line growth inhibition [AhR]
Settings: for IC50: curve of first compound; for viability, T/C: stronger effect = lower value
Source text: Multicellular complex tumor spheroid response to aryl hydrocarbon receptor antagonists in combination with a variety of drugs and investigational agents in selected tumor cell lines
The current study was undertaken to assess response to aryl hydrocarbon receptor antagonists in combination with standard-of-care drugs and investigational agents in solid tumor complex spheroid models. Complex spheroids include a stromal component modeled by human endothelial cells (HUVEC) and fibroblasts modeled by human mesenchymal stem cells (MSCs). The concentration ranges selected for each drug and investigational agent were based upon clinically achievable concentrations if the clinical Cmax of the agent was known.
Compounds. The drugs and investigational agents: BAY 2416964 (NSC825713), GNF351 (NSC835774), CH-223191 (NSC835775), CPI-455 (NSC825282), aza-TdCyd (NSC777586), decitabine (NSC127716), belinostat (NSC758774), entinostat (NSC756642), pevonedistat (NSC761192), tazemetostat (NSC777109), talazoparib (NSC765396), olaparib (NSC753686), selinexor (NSC780203), nedisertib (M3814, NSC802822), bortezomib (NSC756655), venetoclax (NSC766270), doxorubicin (NSC123127), elimusertib (BAY189344, NSC800525), ceralasertib (AZD6738, NSC777638), TAK-243 (NSC785004), alisertib (NSC759677), etoposide (NSC141540), topotecan (NSC609699), eribulin (NSC707389), gemcitabine (NSC613327), carboplatin (NSC241240), cisplatin (NSC119875), and SN-38 (NSC673596) were obtained from the National Cancer Institute (NCI) Developmental Therapeutics Program Chemical Repository (32). The FDA-approved anticancer drug set is available from the Developmental Therapeutics Program at https://dtp.cancer.gov/organization/dscb/obtaining/available plates.htm. […] The stock solutions were prepared in dimethyl sulfoxide (DMSO, Sigma-Aldrich, St. Louis, MO, cat. D2650), except for the platinum compounds which were prepared in saline (Quality Biological, Gaithersburg, MD, cat. 114-055-101), at 800-fold the tested concentration and stored at -70 degrees C prior to their use. All drugs and investigational agents were tested over a range starting from a high concentration at or near the clinical Cmax and decreasing in half-log increments. If the clinical Cmax for an agent had not been determined, the highest concentration tested was 10 microM (Table 1).
Cell Culture. All cells were maintained in an incubator at 37 degrees C and 5% CO2 with 95% humidity. The PDC lines were cultured according to standard operating procedures established by the NCI PDMR (https://pdmr.cancer.gov). Briefly, all PDCs were thawed and cultured in Matrigel-coated flasks prepared with a working solution of 1X Ham's F-12 nutrient mix, without supplementation (Invitrogen, Waltham, MA, cat. 11765054), 100 U/mL penicillin-streptomycin (Invitrogen, cat. 15140122), and 2.5% Matrigel (Corning Inc., Corning, NY, cat. 354248) for the first three passages. All PDCs were cultured in complete DMEM/F-12 media containing advanced DMEM/F-12 (Invitrogen, cat. 12634028), 4.9% defined fetal bovine serum, heat inactivated (HyClone Laboratories Inc., Logan, UT, cat. SH30070.03HI), 389 ng/mL hydrocortisone (Sigma-Aldrich, cat. H4001), 9.7 ng/mL human EGF recombinant protein (Invitrogen, cat. PHG0313), 23.4 microg/mL adenine (Sigma-Aldrich, cat. A2786), 97.3 U/mL penicillin-streptomycin (Invitrogen, cat. 15140122), 1.9 mM L-glutamine (Invitrogen, cat. 25030081), and 9.7 microM Y-27632 dihydrochloride (Tocris Bioscience, Bristol, United Kingdom, cat. 1254). The PDCs were cultured in complete DMEM/F12 media without 10 microM Y-27632 dihydrochloride for at least two passages prior to the screen. The established cell lines NCI-H1341 and […] were cultured in DMEM/F-12, HEPES (Invitrogen, cat. 11330032), 5% defined fetal bovine serum (HyClone Laboratories Inc., cat. SH30070.03), ITS premix universal culture supplement [insulin (5 microg/mL), transferrin (5 microg/mL), and selenious acid (5 ng/mL)] […]

[1] = second compound 0.1 µM, first compound 0.0316 µM
[2] = second compound 0.1 µM, first compound 0.1 µM
[3] = second compound 0.1 µM, first compound 0.316 µM
[4] = second compound 0.1 µM, first compound 1 µM
[5] = second compound 0.1 µM, first compound 3.16 µM
[6] = second compound 0.1 µM, first compound 10 µM
[7] = second compound 0.316 µM, first compound 0.0316 µM
[8] = second compound 0.316 µM, first compound 0.1 µM
[9] = second compound 0.316 µM, first compound 0.316 µM
[10] = second compound 0.316 µM, first compound 1 µM
[11] = second compound 0.316 µM, first compound 3.16 µM
[12] = second compound 0.316 µM, first compound 10 µM
[13] = second compound 1 µM, first compound 0.0316 µM
[14] = second compound 1 µM, first compound 0.1 µM
[15] = second compound 1 µM, first compound 0.316 µM
[16] = second compound 1 µM, first compound 1 µM
[17] = second compound 1 µM, first compound 3.16 µM
[18] = second compound 1 µM, first compound 10 µM
[19] = second compound 3.16 µM, first compound 0.0316 µM
[20] = second compound 3.16 µM, first compound 0.1 µM
[21] = second compound 3.16 µM, first compound 0.316 µM
[22] = second compound 3.16 µM, first compound 1 µM
[23] = second compound 3.16 µM, first compound 3.16 µM
[24] = second compound 3.16 µM, first compound 10 µM
[25] = second compound 10 µM, first compound 0.0316 µM
[26] = second compound 10 µM, first compound 0.1 µM
[27] = second compound 10 µM, first compound 0.316 µM
[28] = second compound 10 µM, first compound 1 µM
[29] = second compound 10 µM, first compound 3.16 µM
[30] = second compound 10 µM, first compound 10 µM
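Note: spheroids exposed to agents for 7 days before readout.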
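Throughout, for viability, T/C: 100% = DMSO vehicle control wells.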

Row | SMILES | IC50 (second compound 0.1 µM) | IC50 (second compound 0.316 µM) | IC50 (second compound 1 µM) | IC50 (second compound 3.16 µM) | IC50 (second compound 10 µM) | viability, T/C [1] | viability, T/C [2] | viability, T/C [3] | viability, T/C [4] | viability, T/C [5] | viability, T/C [6] | viability, T/C [7] | viability, T/C [8] | viability, T/C [9] | viability, T/C [10] | viability, T/C [11] | viability, T/C [12] | viability, T/C [13] | viability, T/C [14] | viability, T/C [15] | also measured
1 | O=C(C=Cc1cccc(S(=O)(=O)Nc2ccccc2)c1)NO + Cc1cncc(-c2nc(NCCc3c[nH]c4ccccc34)c3ncn(C(C)C)c3n2)c1 | > 10 µM | > 10 µM | > 10 µM | > 10 µM | > 10 µM | 88.3% | 87.7% | 85.9% | 77.5% | 69.1% | 51.4% | 91.6% | 95% | 82.4% | 72.6% | 66.6% | 52.4% | 98.1% | 94.3% | 88.4% | viability, T/C [16]: 70.6%; viability, T/C [17]: 67.5%; viability, T/C [18]: 52.7%; viability, T/C [19]: 102%; viability, T/C [20]: 104%; viability, T/C [21]: 94%; viability, T/C [22]: 82%; viability, T/C [23]: 73.1%; viability, T/C [24]: 54.6%; viability, T/C [25]: 114%; viability, T/C [26]: 118%; viability, T/C [27]: 120%; viability, T/C [28]: 102%; viability, T/C [29]: 78%; viability, T/C [30]: 68.1%
2 | CC1COCCN1c1cc(C2(S(C)(=N)=O)CC2)nc(-c2ccnc3[nH]ccc23)n1 (stereo not given) + Cc1cncc(-c2nc(NCCc3c[nH]c4ccccc34)c3ncn(C(C)C)c3n2)c1 | > 10 µM | > 10 µM | > 10 µM | > 10 µM | > 10 µM | 104% | 93.8% | 89.3% | 86% | 85.9% | 85.4% | 87.9% | 89.8% | 85.1% | 86.4% | 90% | 84.3% | 88.7% | 91.7% | 97.3% | viability, T/C [16]: 98.1%; viability, T/C [17]: 84.1%; viability, T/C [18]: 83.7%; viability, T/C [19]: 109%; viability, T/C [20]: 108%; viability, T/C [21]: 105%; viability, T/C [22]: 90.9%; viability, T/C [23]: 91.4%; viability, T/C [24]: 85.7%; viability, T/C [25]: 97.3%; viability, T/C [26]: 117%; viability, T/C [27]: 92.5%; viability, T/C [28]: 107%; viability, T/C [29]: 105%; viability, T/C [30]: 99.1%
